This is an account of results in PubChem BioAssay (NCI).

Test systems include OVCAR-3 ovarian; UO-31 renal; MALME-3M melanoma; SR leukemia; NCI-H460 lung; HOP-62 NSCLC; ACHN renal; NCI-H23 lung; RPMI-8226 leukemia; SF-539 CNS.
Holding throughout (assay): DTP human tumour cell line panel, 48 h

SMILES strings stand for the structures. Where “and” joins values, the source holds several entries; their conditions need not be identical. Identical values can stand only once.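 1) Cells in 96-well plates. 2) Compound, 48 h, 5 concentrations. 3) Linear interpolation between surrounding doses. 4) Unreached endpoint = highest concentration. Here, GI50 denotes the concentration required for 50% inhibition of growth. TGI marks complete inhibition of growth.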

One may read the GI50 as the concentration at which growth is held to half of that of the control. What is called TGI is the concentration giving total growth inhibition. The low end stands for greater sensitivity of the cells, the high end for lower sensitivity of the cells. Turning to `c1cc(C2CCCCC2)ccc1-c1cnc2nonc2n1`, the GI50 in the assay on OVCAR-3 ovarian is 557 nM; in the assay on UO-31 renal, 1180 nM; in the assay with MALME-3M melanoma, 1180 nM; in the assay with SR leukemia it was 348 nM; in the assay with NCI-H460 lung, 1380 nM; with HOP-62 NSCLC, 1210 nM. In addition, the GI50 with ACHN renal is 1140 nM; in the assay with NCI-H23 lung, 1370 nM; with RPMI-8226 leukemia, 400 nM; with SF-539 CNS it was 548 nM. Also, the TGI in the assay with OVCAR-3 ovarian stood at 1970 nM; with UO-31 renal, 2440 nM; in the assay with MALME-3M melanoma, 2660 nM; with NCI-H460 lung, 3640 nM; in the assay with HOP-62 NSCLC, 5980 nM; in the assay on ACHN renal it was 2390 nM. The TGI with NCI-H23 lung was determined as 4020 nM; with RPMI-8226 leukemia it was 2790 nM; in the assay with SF-539 CNS, 1870 nM.

As for `CC(=O)O[C@@H]1C2=C(C)C3(CC3)[C@@](C)(O)C(=O)C2=C[C@@]1(C)CO`, the GI50 with OVCAR-3 ovarian was 319 nM; in the assay on MALME-3M melanoma it was 893 nM; with SR leukemia, 271 nM; with NCI-H460 lung, 296 nM; in the assay on HOP-62 NSCLC, 474 nM; in the assay on ACHN renal, 484 nM. For the same compound, the GI50 is 473 nM with NCI-H23 lung, 372 nM in the assay with RPMI-8226 leukemia and 1020 nM in the assay on SF-539 CNS. For the same compound, the TGI with OVCAR-3 ovarian is 1160 nM; in the assay with MALME-3M melanoma, 2500 nM; with SR leukemia it was greater than 100000 nM; in the assay with NCI-H460 lung, 1080 nM; in the assay on HOP-62 NSCLC, 4520 nM; with ACHN renal, 2330 nM. Also, the TGI with NCI-H23 lung is 2660 nM; with RPMI-8226 leukemia it was 3140 nM; in the assay on SF-539 CNS, 3380 nM.

Consider `O=C1C(Cl)=C(Cl)C(=O)N1c1cccc(C(F)(F)F)c1`, for which the concentration for total growth inhibition (TGI) with OVCAR-3 ovarian, with UO-31 renal, in the assay with MALME-3M melanoma, with SR leukemia, in the assay with NCI-H460 lung and in the assay with HOP-62 NSCLC was greater than 100000 nM each time. The concentration for total growth inhibition (TGI) in the assay with ACHN renal, in the assay on NCI-H23 lung, in the assay on RPMI-8226 leukemia and in the assay with SF-539 CNS was greater than 100000 nM throughout.

`O=C(O)/C(Cl)=C(Cl)/C=N/NC(=O)c1cc2ccccc2cc1O`: the TGI in the assay with OVCAR-3 ovarian was greater than 100000 nM; in the assay with UO-31 renal, 6360 nM; in the assay on MALME-3M melanoma, greater than 100000 nM; with SR leukemia, 39300 nM; in the assay on NCI-H460 lung, greater than 100000 nM; in the assay with HOP-62 NSCLC, greater than 100000 nM. In addition, the TGI in the assay with ACHN renal was greater than 100000 nM; in the assay on NCI-H23 lung, 41200 nM; in the assay with RPMI-8226 leukemia, greater than 100000 nM; with SF-539 CNS it was greater than 100000 nM.

As to `NC(Cc1cccnn1)C(=O)O` (stereo not drawn), the TGI in the assay with OVCAR-3 ovarian, in the assay on UO-31 renal, with MALME-3M melanoma, with SR leukemia, in the assay with NCI-H460 lung and in the assay with HOP-62 NSCLC was greater than 100000 nM in each case. The TGI in the assay with ACHN renal, in the assay with NCI-H23 lung, with RPMI-8226 leukemia and in the assay on SF-539 CNS was greater than 100000 nM in each case.

As to `Oc1ccc(Cl)cc1Sc1cc(Cl)ccc1O`, the GI50 is 2790 nM with OVCAR-3 ovarian; 2240 nM in the assay on UO-31 renal; 2410 nM with MALME-3M melanoma; 3530 nM in the assay with SR leukemia; 3450 nM with NCI-H460 lung; 3040 nM with HOP-62 NSCLC. Further, the GI50 was 2720 nM in the assay on ACHN renal, 2230 nM in the assay with NCI-H23 lung, 1970 nM in the assay with RPMI-8226 leukemia and 3140 nM in the assay on SF-539 CNS. Also, the TGI was 15400 nM and 6800 nM in the assay with OVCAR-3 ovarian; 20100 nM and 6240 nM with UO-31 renal; 20300 nM and 6810 nM in the assay with MALME-3M melanoma; 51600 nM and 12200 nM in the assay with SR leukemia; 24800 nM and 9200 nM with NCI-H460 lung; 32900 nM and 12000 nM in the assay on HOP-62 NSCLC. Further, the TGI in the assay with ACHN renal is 23100 nM and 8270 nM; in the assay with NCI-H23 lung, 24200 nM and 7330 nM; with SF-539 CNS, 37200 nM and 11200 nM.

Regarding `C=C1C(=O)O[C@H]2[C@H]1CC/C(COC(=O)CCCCCCCC(=O)OC/C1=C/CC[C@@]3(C)O[C@H]3[C@H]3OC(=O)C(=C)[C@@H]3CC1)=C\CC[C@@]1(C)O[C@@H]21`, the GI50 with OVCAR-3 ovarian was 1320 nM; in the assay with UO-31 renal it was 1500 nM; in the assay on MALME-3M melanoma, 2170 nM; in the assay with SR leukemia, 398 nM; with NCI-H460 lung it was 3060 nM; with HOP-62 NSCLC, 2190 nM. Further, the GI50 in the assay on ACHN renal was 1850 nM; with NCI-H23 lung it was 2260 nM; in the assay on RPMI-8226 leukemia, 1310 nM; in the assay on SF-539 CNS, 1830 nM. The TGI with OVCAR-3 ovarian turned out to be 2790 nM; with UO-31 renal, 3790 nM; in the assay on MALME-3M melanoma, 5300 nM; in the assay with SR leukemia it was 10600 nM; in the assay with NCI-H460 lung, 9100 nM; in the assay with HOP-62 NSCLC it was 5680 nM. The TGI was determined as 5510 nM in the assay with ACHN renal, 6520 nM in the assay with NCI-H23 lung, 6460 nM with RPMI-8226 leukemia and 3830 nM in the assay on SF-539 CNS.

In the case of `CC(C)c1[nH]nc2c(NCc3ccc(-c4ccccn4)cc3)nc(SCCN)nc12`, the GI50 in the assay with OVCAR-3 ovarian is 18.9 nM and 16.2 nM; with UO-31 renal, 186 nM and 402 nM; in the assay on MALME-3M melanoma, 16 nM; with SR leukemia, 12.6 nM; with NCI-H460 lung, 38.1 nM and 35.6 nM; with HOP-62 NSCLC it was 24.7 nM and 20.6 nM. For the same compound, the GI50 is 273 nM and 286 nM in the assay with ACHN renal; 21.2 nM and 18.1 nM with NCI-H23 lung; 15.1 nM and 16.7 nM with RPMI-8226 leukemia; 31.4 nM and 27.2 nM in the assay on SF-539 CNS. The TGI was 10100 nM in the assay with OVCAR-3 ovarian; 59.8 nM with MALME-3M melanoma; 2030 nM in the assay with SR leukemia; 2050 nM and 10000 nM with NCI-H460 lung; 604 nM and 187 nM in the assay with HOP-62 NSCLC; 4700 nM with ACHN renal. Also, the TGI was 797 nM and 95.1 nM in the assay with NCI-H23 lung; 84.7 nM and 83.1 nM with RPMI-8226 leukemia; 97.9 nM and 81.1 nM in the assay with SF-539 CNS.

`CC(C)c1[nH]nc2c(NCc3ccc(-c4ccccn4)cc3)nc(SCCN(C)C)nc12`: the GI50 in the assay with OVCAR-3 ovarian was 75.4 nM; with MALME-3M melanoma it was 98.6 nM; in the assay with SR leukemia, less than 29.4 nM; in the assay with NCI-H460 lung, 112 nM; in the assay on HOP-62 NSCLC, less than 17.7 nM; in the assay on ACHN renal, 86.4 nM. Besides, the values for the concentration for 50% growth inhibition (GI50) with NCI-H23 lung, with RPMI-8226 leukemia and with SF-539 CNS were 64.6 nM, 19.5 nM and 74.5 nM, respectively. The TGI in the assay on OVCAR-3 ovarian is 10900 nM; with MALME-3M melanoma, 642 nM; with SR leukemia, 3210 nM; in the assay on NCI-H460 lung it was 11700 nM; in the assay with HOP-62 NSCLC, 236 nM; in the assay on ACHN renal, 4960 nM. For the same compound, the results for the TGI with NCI-H23 lung, with RPMI-8226 leukemia and in the assay with SF-539 CNS were 598 nM, 101 nM and 242 nM, respectively.
